The values that follow come from ChEMBL document CHEMBL5604062, “ASAP - ZIKV NS2B-NS3 protease fluorescence dose response” (2024).

A word on the IC50: it is the point on the concentration scale where inhibition reaches its midpoint. The low end stands for greater potency, the high end for weaker potency.

The target of the assay is Nonstructural protein 3 (Zika virus, UniProt A0A024AXB9). Briefly: Functional biochemical assay to identify treatments for viral infectious disease that targets Zika NS2B-NS3 protease. Utilizing a direct enzyme activity measurement method, reading the fluorescence intensity is used to characterize the relative potency of inhibitors as IC50. Details: species or system PRVABC59.
Sequence of Nonstructural protein 3 (A0A024AXB9 whole entry): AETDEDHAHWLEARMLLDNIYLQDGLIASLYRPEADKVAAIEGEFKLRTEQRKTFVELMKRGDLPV

Each structure is given as a SMILES string. Where “and” joins values, the source holds several entries; their conditions need not be identical. Equal entries are not always repeated.

The molecule `O=C(Nc1ccc2c(c1)CNC2)c1cc(F)cc(C=C2CCS(=O)(=O)CC2)c1` displayed an IC50 of 645 nM.

For `NCCc1csc2cc(C(=O)Nc3cc([C@H]4CCOC4)ccn3)ccc12`, the IC50 is over 25000 nM. Under `Cc1c(C(=O)Nc2ccc3c(c2)C(=O)N(C)C3)cc(C2CC2)n1C` stands over 25000 nM. Under `Cc1cc(NC(=O)c2cc(C3CC3)n(C)c2C)ccc1N1CCCC1=O` stands over 25000 nM; under `Cc1c(C(=O)Nc2ccc3c(c2)CCCC(=O)N3C)cc(C2CC2)n1C`, over 25000 nM; under `N#Cc1cccc(-c2nc3c(C(=O)Nc4ccc5c(c4)CNC5)cc(F)cc3[nH]2)c1`, 33 nM (2×) and 13 nM. For the molecule `Cc1c(C(=O)Nc2ccc3c(c2)CCCC(=O)N3)cc(C2CC2)n1C`, the IC50 was over 25000 nM. Turning to `Cc1c(C(=O)Nc2cccc(-c3ccc(=O)[nH]n3)c2)cc(C2CC2)n1C`, the IC50 was over 25000 nM. Under `COc1cc(OC)cc([C@H]2CCN(C(=O)Nc3ccc4c(c3)CNC4)C2)c1` stands over 25000 nM; under `COC(=O)[C@H](C)n1cc2c(C(=O)Nc3ccc4c(c3)CNC4)cc(Cl)cc2n1`, 199 nM; under `COCn1ncc2c(C(=O)Nc3ccc4c(c3)CNC4)cc(Cl)cc21`, 80 nM and 54 nM.

Take `C=CC[C@H]1NCc2cc(NC(=O)c3ccc4c(c3)CC(=O)N4)ccc21`: the IC50 is over 25000 nM. The molecule `Brc1cc(CNc2ccc3c(c2)CNC3)c2cc[nH]c2c1` showed an IC50 of 4320 nM. In other words, the single-digit micromolar range. Regarding `O=C(Nc1cc(-c2cccnc2)ccn1)c1cn2c(n1)CCC2`, the half-inhibitory concentration (IC50) was over 25000 nM. In turn, `CC1(c2nc(C(=O)Nc3cc(-c4cccnc4)ccn3)no2)CC1` yielded an IC50 of over 25000 nM. `COC(=O)c1cc(C(=O)Nc2ccc3c(c2)CNC3)cc2[nH]ccc12` had an IC50 of over 25000 nM. With `N#Cc1cc2c(cc1NC(=O)c1cc(F)cc3[nH]ncc13)CNC2` the figure was 16 nM (2×) and < 12 nM; with `CCOc1cccc(-c2cccc(NC(=O)c3cc(C4CC4)n(C)c3C)n2)c1`, over 25000 nM. Under `Fc1cc(CNc2ccc3c(c2)CNC3)c2cc[nH]c2c1` stands 9310 nM; under `C[C@]1(O)C(=O)Nc2cc(F)cc(C(=O)Nc3ccc4c(c3)CNC4)c21`, 171 nM; under `O=C1Cc2c(cc(F)cc2C(=O)Nc2cc([C@H]3CCOC3)ccn2)N1`, over 25000 nM. With `Cc1c(C(=O)Nc2ccc3c(c2)CS(=O)(=O)C3)cc(C2CC2)n1C` the figure was over 25000 nM; with `CCc1cc(C(=O)Nc2ccc3c(c2)CNC3)cc2cn[nH]c12`, 1610 nM; with `O=C(Nc1ccc2c(c1)CNC2)c1cc(F)cc2[nH]c(-c3ccc(F)cc3)nc12`, 22 nM and 23 nM and 14 nM. For the molecule `Cc1ccc(NC(=O)c2cc(C3CC3)n(C)c2C)cc1-c1cccnc1`, the half-maximal inhibitory concentration (IC50) is over 25000 nM.

The molecule `C=CC[C@H]1NCc2cc(N[C@H](C(=O)NCC(F)F)c3cc(Cl)cc(C4CC4)c3)ccc21` came in with an IC50 of 210 nM. With `COc1cc(-c2cc(NC(=O)c3cc(F)cc4[nH]ncc34)cc3c2CNC3)ccn1` the figure was 33 nM and 30 nM and 23 nM; with `COCCN1C(=O)CCc2cc(NC(=O)c3cc(C4CC4)n(C)c3C)ccc21`, over 25000 nM. As to `Cc1c(C(=O)Nc2cccc(Cn3ccccc3=O)c2)cc(C2CC2)n1C`, the concentration for half-maximal inhibition (IC50) is over 25000 nM.

In the case of `Cc1c(C(=O)Nc2cccc(C(=O)NC3CC3)c2)cc(C2CC2)n1C`, the IC50 is over 25000 nM. The molecule `COCCNC(=O)[C@H](Nc1cccc([C@H]2CCOC2)c1)c1cc(Br)cc2[nH]ccc12` registered an IC50 of over 25000 nM. Regarding `Cc1c(C(=O)Nc2cc(C#N)cn(C)c2=O)cc(C2CC2)n1C`, the half-maximal inhibitory concentration (IC50) was over 25000 nM. Under `O=C1C[C@H]2CN(C(=O)Nc3ccc4c(c3)CNC4)CC[C@H]2N1` stands over 25000 nM; under `Cc1cc(NC(=O)c2cc(C3CC3)n(C)c2C)cnc1N1CCCCC1`, over 25000 nM; under `O=C(Nc1cc(-c2cccnc2)ccn1)c1sc2c(c1Br)CNC2`, over 25000 nM. The molecule `Cn1ncc(C(=O)Nc2cc(-c3cccnc3)ccn2)c1C1CC1` gave an IC50 of 20800 nM. That is a double-digit micromolar value. For `O=C(Nc1cc2c(c(C3=CCOCC3)c1)CNC2)c1cc(F)cc2[nH]ncc12`, the IC50 was 28 nM and 25 nM and 20 nM.
